Results as given in patent US7803930B2, “Antisense modulation of apolipoprotein B-expression” (Isis Pharmaceuticals, Inc., priority 2002, dated 2010).
In the oligonucleotide strings, read from the 5' end, every base follows the letter of its sugar. An asterisk marks phosphorothioate; unmarked linkages are phosphodiester. Other units and linkages are bracketed, terminal groups are in braces. A string of capitals states the bases alone. e = 2'-O-(2-methoxyethyl) (MOE); [5mC] = 5-methylcytosine; d = 2'-deoxy (DNA)

Columns and labels:
[1] = test system: mouse apolipoprotein B mRNA; test: High fat fed mice (Example 65): mouse apolipoprotein B mRNA and serum cholesterol levels; type: in vivo
Protocol: (§1) Male C57Bl/6 mice were divided into the following groups, consisting of 5 animals each: (1) mice on a lean diet, injected with saline (lean control); (2) mice on a high fat diet; (3) mice on a high fat diet injected with 50 mg/kg of the control oligonucleotide 141923 (SEQ ID NO: 858); (4) mice on a high fat diet given 20 mg/kg atorvastatin calcium (Lipitor®, Pfizer Inc.); (5) mice on a high fat diet injected with 10, 25 or 50 mg/kg ISIS 147764 (SEQ ID NO: 109). Saline and oligonucleotide treatments were administered intraperitoneally twice weekly for 6 weeks. Atorvastatin was administered daily for 6 weeks. At study termination, liver samples were isolated from each animal and RNA was isolated for Northern blot qualitative assessment, DNA microarray and quantitative real-time PCR. Northern blot assessment and quantitative real-time PCR were performed as described by other examples herein.
(§2) Mouse apolipoprotein B mRNA and serum cholesterol levels, measured as described herein, were evaluated to confirm antisense inhibition by ISIS 147764 and ISIS 147483. […] The 50 mg/kg dose of ISIS 147483 increased ALT and AST levels.

[2] = ob/ob mice (Example 50): cholesterol, lipid, triglyceride, liver enzyme and glucose levels; type: in vivo, mouse; settings: high fat high cholesterol diet, 50 mg/kg i.p. twice a week, six weeks
Protocol: (§3) Ob/ob mice receiving a high fat, high cholesterol diet (60% kcal fat supplemented with 0.15% cholesterol) were treated with one of several oligonucleotides to evaluate their effect on apolipoprotein B-related phenotypic endpoints in ob/ob mice. After overnight fasting, mice from each group were dosed intraperitoneally twice a week with 50 mg/kg of ISIS 147483 (SEQ ID NO: 79), or 147764 (SEQ ID NO: 109), or the controls ISIS 116847 (SEQ ID NO: 857), or 141923 (SEQ ID NO: 858), or saline for six weeks. At study termination and forty eight hours after the final injections, animals were sacrificed and evaluated for target mRNA levels in liver, cholesterol and triglyceride levels, liver enzyme levels, serum glucose levels, and PTEN levels.

apolipoprotein B mRNA [3] = test: Lean mice, 6 weeks (Example 66): apolipoprotein B mRNA; type: in vivo, mouse
Protocol: (§4) The accumulation of lipids in liver tissue was also evaluated in lean mice. Male […] mice (Charles River Laboratories (Wilmington, Mass.) at 6 to 7 weeks of age were maintained on a standard rodent diet and were treated twice weekly with intraperitoneal injections of 25 or 50 mg/kg 147764 (SEQ ID NO: 109) or 147483 (SEQ ID NO: 79) for 6 weeks. Saline treated animals served as controls. Each treatment group was comprised of 4 animals. Animals were sacrificed after the 6 week treatment period, at which point liver tissue and serum were collected.
Apolipoprotein B mRNA levels were measured by real-time PCR as described by other examples herein. The data, shown in Table 51, represent the average of 4 animals and are presented as inhibition relative to saline treated controls.

apolipoprotein B mRNA [4] = test: ob/ob mice (Example 50): apolipoprotein B mRNA levels in liver; type: in vivo, mouse; settings: high fat high cholesterol diet, 50 mg/kg i.p. twice a week, six weeks
Protocol: as §3

[5] = Lean mice, 6 weeks (Example 66): serum lipids and liver enzymes; type: in vivo, mouse; settings: serum
Protocol: as §4
Total cholesterol, LDL-cholesterol, HDL-cholesterol and triglycerides in serum were measured by routine clinical analysis using an Olympus Clinical Analyzer (Olympus America Inc., Melville, N.Y.). The liver enzymes ALT and […] in serum were also measured using the Olympus Clinical Analyzer.

[6] = High fat fed mice (Example 65): ALT and AST levels; type: in vivo, mouse
Protocol: as §1, §2

With “ATGTCAATGCCACATGTCCA (antisense eA*eT*eG*eT*e[5mC]*dA*dA*dT*dG*d[5mC]*d[5mC]*dA*d[5mC]*dA*dT*eG*eT*e[5mC]*e[5mC]*eA) [ISIS 147483]” the “mouse apolipoprotein B mRNA and serum cholesterol levels” value [1] was “lowered in a dose-dependent manner”, the “glucose, cholesterol, and triglyceride levels” value [2] was “able to lower” and the “% Inhibition apolipoprotein B mRNA” value (apolipoprotein B mRNA [3]; 25 mg/kg i.p. twice weekly) was 79%. For the same sequence, the “% Inhibition apolipoprotein B mRNA” value (apolipoprotein B mRNA [3]; 50 mg/kg i.p. twice weekly) was 91%, the “inhibition of apolipoprotein B mRNA expression” value (apolipoprotein B mRNA [3]; 25 or 50 mg/kg i.p. twice weekly) was “in a dose-dependent manner” and the “apolipoprotein B mRNA levels” value (apolipoprotein B mRNA [4]) was “able to lower”. For the same sequence, the HDL-cholesterol ([5]; 25 mg/kg i.p. twice weekly) was 117 mg/dL, the LDL-cholesterol ([5]; 25 mg/kg i.p. twice weekly) was 26 mg/dL and the “Liver Enzymes ALT” value ([5]; 25 mg/kg i.p. twice weekly) was 73 IU/L. The “Liver Enzymes AST” value ([5]; 25 mg/kg i.p. twice weekly) was 78 IU/L, the Total cholesterol ([5]; 25 mg/kg i.p. twice weekly) was 153 mg/dL and the Triglycerides ([5]; 25 mg/kg i.p. twice weekly) was 138 mg/dL. For the same sequence, the HDL-cholesterol ([5]; 50 mg/kg i.p. twice weekly) was 131 mg/dL, the LDL-cholesterol ([5]; 50 mg/kg i.p. twice weekly) was 39 mg/dL and the “Liver Enzymes ALT” value ([5]; 50 mg/kg i.p. twice weekly) was 57 IU/L. For the same sequence, the “Liver Enzymes AST” value ([5]; 50 mg/kg i.p. twice weekly) was 72 IU/L, the Total cholesterol ([5]; 50 mg/kg i.p. twice weekly) was 183 mg/dL and the Triglycerides ([5]; 50 mg/kg i.p. twice weekly) was 127 mg/dL. For the same sequence, the “ALT and AST levels” value ([6]; 50 mg/kg) was “increased” and the “ALT or AST levels” value ([6]; 10 and 25 mg/kg) was “did not significantly elevate”.
